Source: patent publication US20220112225A1, “ANANDAMIDE COMPOUNDS” (priority 2019, published 2022)

Key:
hMfsd2a [1] = molecular target: T1, hMfsd2a (Homo sapiens, UniProt Q8NA29); experiment: In vitro Mfsd2a transport, thin layer chromatography (TLC) analysis; format: cell-based; conditions: transfected HEK293 cells, 50 μM test compound, 1 hour, iodine and cupric acetate stain
T1 construct: expressed in transfected cells; host or cells: HEK293
T1 sequence (Q8NA29 1-530 isoform Q8NA29-2): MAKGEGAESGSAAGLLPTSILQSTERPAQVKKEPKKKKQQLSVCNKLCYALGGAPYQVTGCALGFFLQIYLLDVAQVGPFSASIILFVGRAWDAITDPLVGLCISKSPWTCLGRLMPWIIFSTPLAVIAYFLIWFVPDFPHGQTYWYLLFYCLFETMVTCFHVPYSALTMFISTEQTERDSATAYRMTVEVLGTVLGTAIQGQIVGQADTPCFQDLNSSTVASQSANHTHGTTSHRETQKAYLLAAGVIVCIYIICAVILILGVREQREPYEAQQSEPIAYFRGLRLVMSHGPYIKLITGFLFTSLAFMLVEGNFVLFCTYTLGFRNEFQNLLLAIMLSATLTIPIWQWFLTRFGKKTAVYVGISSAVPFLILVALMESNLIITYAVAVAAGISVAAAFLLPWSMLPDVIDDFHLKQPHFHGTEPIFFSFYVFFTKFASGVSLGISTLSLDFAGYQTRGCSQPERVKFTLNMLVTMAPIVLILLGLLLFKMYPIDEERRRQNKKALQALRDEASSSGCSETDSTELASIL
Method: (§1) The assay was conducted in a low throughput 6-well format with HEK293 cells prepared and then transfected in duplicate wells with plasmids containing either the wildtype (WT) version of hMfsd2a, the D97A mutant version, or an empty vector as control. Uptake into the ceils was assessed by both thin-layer chromatography (TLC) and ultrahigh performance liquid chromatography hyphenated mass spectrometry.
(§2) HEK293 cells were seeded at 6.25×10^5 per 6-well in 2 mL of DMEM with 10% FBS and 1% penicillin-streptomycin (P/S) media (Sigma) and incubated overnight at 37° C. in 5% CO2. Cells were checked for confluency the next morning. On a per well basis the following lipid mix was generated, 6 μL of Lipofectamine 2000 was added dropwise to 200 μL of OptiMEM, this was left to stand for 5 minutes at room temperature (RT). 1 μg of hMfsd2a WT, D97A or empty plasmid was prepared in 200 μL of OptiMEM as appropriate for each well; the Lipofectamine 2000 in OptiMEM solution was then added dropwise to a total volume of 400 μL (this can be scaled to support the number of wells/plates to be assayed). This transfection preparation was then incubated at RT for 20 minutes. DMEM with 10% FBS and no P/S media was warmed to 37° C., the HEK293 plate media was changed and the cells washed carefully with 1 mL of the warmed DMEM with 10% FBS no P/S media, 1.6 mL of the warmed DMEM with 10% FBS no P/S media was then added to each well. 400 μL of the transfection preparation was then added dropwise to each well as appropriate and the plate was gently swirled in a circular motion. The plate was then incubated overnight at 37° C. in 5% CO2.
(§3) Compound Incubation and Preparation of Analysis Samples Compound stock solutions were prepared in a 12% BSA in PBS solution such that a 40 μL spike into 2 ml, of plain DMEM would yield a concentration of 50 μM of test compound (the compound treated media). Remaining compound stock solution in 12% BSA in PBS was frozen at −20° C. to allow for media stability testing. The HEK293 6-well plate was removed from the incubator and the wells gently rinsed with 1 mL of plain DMEM that had been prewarmed to 37° C. 2 mL of the compound treated media was then added to each well. A 100 μL sample of the compound treated media was sampled to represent a T=0 h sample; 5 μL of this sample (the remainder was reserved and frozen in case of re-analysis being required) was diluted with 45 μL of DMEM and crashed with 50 μL MeCN in a 96-well plate which was sealed and kept on ice. The HEK293 6-well plate was then incubated at 37° C. in 5% CO2 for 1 hour, the plate was then removed from the incubator and a 100 μL sample of media taken from each well to represent a T=1 h sample; 5 μL of this sample (the remainder was reserved and frozen in case of re-analysis being required) was diluted with 45 μL of DMEM and crashed with 50 μL MeCN into the 96-well plate which was re-sealed and stored at −20° C. The remaining media was then removed from the HEK293 6-well plate, the wells were gently rinsed twice with 1 mL of 0.5% BSA in DMEM, the media was then removed and the 6-well plate allowed to dry completely at RT. 1 ml of 3:2 Hexane:Isopropanol (HIP) was added to each well in a fume cupboard and the plate allowed to stand for 30 minutes at RT without shaking. The HIP solution was then transferred to 2 mL Eppendorf tubes, and the process was repeated with a second 1 mL aliquot of HIP and the two aliquots combined. The HIP samples were then dried down under a nitrogen stream.
Silica gel plates were prepared in a fume cupboard by initially drawing a line 1.5 cm from the bottom edge of the plate and then drawing sample lanes with a width of 1 cm and a separation of 0.5 cm between lanes. TLC buffer for phospholipids was prepared as a 31:62:7 solvent mix of Methanol:Chloroform:Ammonium Hydroxide. Plates were pre-run in a humid chamber containing 200 mL of the TLC buffer until the solvent front was 1.5 cm from the plate edge, the plate was then allowed to dry. […]

hMfsd2a [2] = molecular target: T1, hMfsd2a; experiment: In vitro Mfsd2a transport, UPLC-MS-MS analysis; format: cell-based; conditions: transfected HEK293 cells, 50 μM test compound, 1 hour
Method: as §1, §2, §3
HIP samples prepared as described above were reconstituted in 100 μL of MeCN, vortex mixed and inverted multiple times to ensure all surfaces of the Eppendorf tube were rinsed with the MeCN and finally pulse centrifuged. […]

[3] = In vitro brain homogenate stability, rat; format: in vitro ADME; conditions: for half-life at 1 μM: 37° C., test compound at 1 μM, read-out: Rat t1/2; for Clearance in brain homogenate stability study (in words): one hour incubation, increasing formation of Compound 2
Method: (§4) Fresh rodents brains were snap frozen immediately after collection and the assay performed on the same day. Brains were pre-incubated at 37° C. before being spiked with test compound at 1 μM. Samples were collected across 6 time points (0, 10, 20, 30, 45 and 60 minutes) and crashed in cold acetonitrile containing an internal standard (Leucine Enkephalin) and kept on ice until all samples had been collected. The samples were then shaken and centrifuged. 100 μL of supernatant was transferred to a plate containing 50 μL of MilliQ water and mixed. These plates were analyzed by LC-MS/MS over the 6 time points, where the percentage of test compound remaining was calculated using the peak area of the initial timepoint (T=0 minutes) as 100%. The natural log of the percentage remaining was then calculated. The natural log of the percentage remaining versus time (minutes) was plotted on a graph and the gradient of this graph was used to calculate the elimination rate constant (K), The half-life (t1/2) of test compound was calculated using the natural log of 2 divided by the elimination rate constant. The percentage of Compound 2 formed is reported below in Tables 4-6. FIGS. 9A-9F show results of the brain homogenate stability conducted with representative compounds of the Examples.

[4] = In vitro brain homogenate stability, mouse; format: in vitro ADME; conditions: for half-life at 1 μM: 37° C., test compound at 1 μM, read-out: Mouse t1/2; for Clearance in brain homogenate stability study (in words): one hour incubation, increasing formation of Compound 2
Method: as §4

[5] = PO JVC rat terminal PK study at 20 mg/kg (tissue distribution); format: in vivo; conditions: rat brain after Compound 3 at 20 mg/kg PO, before the more sensitive method
Method: Compound 3 was orally dosed at 20 mg/kg to a group of nine, jugular vein cannulated, individually housed male Sprague Dawley rats that were fasted overnight and fed 4 h post-dose to assess its tissue distribution profile. Dosing was performed with 5 mL/kg dosing volumes with 5% DMSO, 95% water used as a dosing vehicle. Terminal blood samples (>230 μL) were taken from groups of 3 animals at each of 3 time-points post dose (1 h, 2 h, and 4 h) by cardiac puncture under CO2 into heparinised Eppendorf tubes (containing 5 μL heparin) on ice containing an equal quantity of water. Two 100 μL aliquots were then placed in duplicate 96 well plates on dry ice. Immediately after blood sampling, brain and eye pair samples were excised, weighed, rinsed, blotted, and snap frozen in liquid N2. Samples were stored in the freezer at −20° C. until bioanalysis.
Tissue samples were weighed and a volume of water 3 times the mass added to samples before homogenization. In the case of eyeballs the lens could not be homogenized, but all other tissues homogenized. The resulting data (tissue distribution parameters) are shown below in Table 2.

[6] = Brain homogenate re-analysis for Compound 2 after PO Compound 3 at 20 mg/kg; format: in vivo; conditions: after dosing Compound 3
Method: Re-analysis of the brain tissues harvested above (see Example 4) was conducted according to the following procedures and the data are shown in Table 3. • 1. 100 μL of brain homogenate was transferred to a 2 mL square matrix deep well plate, • 2. 300 μL acetonitrile (ACN) containing IS was dispensed on to the samples and mixed on a shaker. • 3. The samples were centrifuged for 15 min at 3500 rpm. • 4. 300 μL supernatant was transferred in to a fresh 2 mL square matrix deep well plate. • 5. Samples were concentrated using nitrogen then reconstituted in 80 μL of 50:50 ACN:MilliQ water and shaken on a plate shaker. • 6. Samples were then analyzed by LC-MS-MS.

| SMILES | Transport via Mfsd2a: TLC band intensity in WT cells compared with D97A mutant Mfsd2a and/or empty vector cells (hMfsd2a [1]) | Transport via Mfsd2a: concentration in HIP samples from WT cells compared with D97A mutant Mfsd2a and/or empty vector cells (hMfsd2a [2]) | half-life at 1 μM [3] [h] | Clearance in brain homogenate stability study (in words) [3] | half-life at 1 μM [4] [h] | Clearance in brain homogenate stability study (in words) [4] | Detection of Compound 2 in brain tissues, first analysis [5] | Detection of Compound 2 in the brain, in-vivo rat CNS penetration data using Compound 3 [6] |
| --- | --- | --- | --- | --- | --- | --- | --- | --- |
| CCCCC/C=C\C/C=C\C/C=C\C/C=C\CCCC(=O)NCCOP(=O)(O)OCCN [Compound 4, 2-ammonioethyl (2-((5Z,8Z,11Z,14Z)-icosa-5,8,11,14-tetraenamido)ethyl) phosphate] | transported via Mfsd2a | transported via Mfsd2a | 1.27 | demonstrated a level of clearance | 2 | demonstrated a level of clearance | – | – |
| CCCCC/C=C\C/C=C\C/C=C\C/C=C\CCCC(=O)NCCOC(=O)NCCOP(=O)([O-])OCC[N+](C)(C)C [Compound 8, 2-(((2-((5Z,8Z,11Z,14Z)-icosa-5,8,11,14-tetraenamido)ethoxy)carbonyl)amino)ethyl (2-(trimethylammonio)ethyl) phosphate] | transported via Mfsd2a | transported via Mfsd2a | – | – | – | – | – | – |
| CCCCC/C=C\C/C=C\C/C=C\C/C=C\CCCC(=O)NCCO [Compound 2, (5Z,8Z,11Z,14Z)—N-(2-hydroxyethyl)icosa-5,8,11,14-tetraenamide, reference compound] | – | – | – | – | – | – | not detected above the lower limit of quantification | detected in the brain |
| CCCCC/C=C\C/C=C\C/C=C\C/C=C\CCCC(=O)NCCOP(=O)(O)OCC(N)C(=O)O (stereo not shown) [Compound 5, 2-ammonio-2-carboxyethyl (2-((5Z,8Z,11Z,14Z)-icosa-5,8,11,14-tetraenamido)ethyl) phosphate] | transported via Mfsd2a | cannot be confirmed if the compound is transported via Mfsd2a | 2.1 | demonstrated a level of clearance | 4.3 | demonstrated a level of clearance | – | – |
| CCCCC/C=C\C/C=C\C/C=C\C/C=C\CCCC(=O)NOC(C)(O)COP(=O)([O-])OCC[N+](C)(C)C (stereo not shown) [Compound 20, 2-hydroxy-2-(((5Z,8Z,11Z,14Z)-icosa-5,8,11,14-tetraenamido)oxy)propyl (2-(trimethylammonio)ethyl) phosphate] | cannot be confirmed if the compound is transported via Mfsd2a | transported via Mfsd2a | – | – | – | – | – | – |
| CCCCC/C=C\C/C=C\C/C=C\C/C=C\CCCC(=O)NCCOC(=O)OCCOP(=O)([O-])OCC[N+](C)(C)C [Compound 6, 2-(((2-((5Z,8Z,11Z,14Z)-icosa-5,8,11,14-tetraenamido)ethoxy)carbonyl)oxy)ethyl (2-(trimethylammonio)ethyl) phosphate] | transported via Mfsd2a | transported via Mfsd2a | – | – | – | – | – | – |
| CCCCC/C=C\C/C=C\C/C=C\C/C=C\CCCC(=O)NCCOC(=O)OCCCOP(=O)([O-])OCC[N+](C)(C)C [Compound 7, 3-(((2-((5Z,8Z,11Z,14Z)-icosa-5,8,11,14-tetraenamido)ethoxy)carbonyl)oxy)propyl (2-(trimethylammonio)ethyl) phosphate] | transported via Mfsd2a | transported via Mfsd2a | – | – | – | – | – | – |
